Source: article PMC12750394 (ACS Omega, 2025)
Bridge positions count the residues as written; N and C are the ends. Square brackets hold non-standard residues; d marks the D form. Peptide text beside a SMILES is read from it. * marks the point of attachment. X1 = CC[C@H](C)CCCCC(=O)*; Dab = NCC[C@H](N)C(=O)O

Assays:
[1] = tested on: E. coli; assay: microbe, parasite or virus in culture; details: for average MIC against E. coli: microbroth dilution, 4 × 10^6 CFU/mL, 1 h at 37 °C, TSB added, 24 h at 37 °C, growth inhibition read visually, highest DesHDAP2 concentration […], three technical replicates each from four independent biological experiments
Description: (§1) For radial diffusion, microbroth dilution, and checkerboard assays, bacterial cultures in tryptic soy broth (TSB) were started from individual colonies picked from agar plates and grown overnight (≈16–18 h) in a shaking incubator at 37 °C. Overnight bacterial cultures were diluted into fresh TSB and grown at 37 °C to an optical density (OD600) of 0.5–0.7. Bacteria were pelleted via centrifuge at 1500g at room temperature for 10 min, washed once with cold sterile sodium phosphate buffer (10 mM Na3PO4, 100 mM NaCl, pH 7.4), then pelleted and resuspended again in sodium phosphate buffer.
(§2) Antimicrobial activity was assessed using the microbroth dilution assay. A resuspended bacterial culture prepared as described above was mixed with deionized water to reach a final bacterial concentration of 4 × 10^6 CFU/mL. A twofold dilution series of peptides in deionized water was prepared. 10 μL of the serial dilutions were added to 90 μL of the 4 × 10^6 CFU/mL bacterial solution in a 96-well plate. […] After incubating for 1 h at 37 °C, 50 μL of TSB was added to each testing well.

[2] = tested on: B. subtilis; assay: microbe, parasite or virus in culture; details: for average MIC against B. subtilis: microbroth dilution, 4 × 10^6 CFU/mL, 1 h at 37 °C, TSB added, 24 h at 37 °C, growth inhibition read visually, highest DesHDAP2 concentration […], three technical replicates each from four independent biological experiments; for MIC: Bacillus subtilis, read-out: average MIC against B. subtilis
Excerpt: as §1, with “The bacteria species and strains used in this study were: Top10 E. coli containing a pET plasmid with ampicillin resistance (Invitrogen Top10), S. marcescens (Carolina Biosciences #155554A), E. aerogenes (ATCC #51697), E. raffinosus (ATCC #49464), S. epidermidis (ATCC #14990) and B. subtilis (ATCC #6501). For” for “For”
as §2, with “well. After incubation for 24 h at 37 °C, growth inhibition was determined visually to assess MIC.” for “well.”

Structure (SMILES) | average MIC against E. coli [1] [µg/mL] | average MIC against B. subtilis [2] [µg/mL] | MIC ([1]; Escherichia coli, read-out: average MIC against E. coli) [µg/mL] | MIC [2] [µg/mL]
NC[C@H]1O[C@H](O[C@H]2[C@H](O)[C@@H](O[C@H]3O[C@H](CO)[C@@H](O)[C@H](N)[C@H]3O)[C@H](N)C[C@@H]2N)[C@H](O)[C@@H](O)[C@@H]1O [kanamycin] | 50 | 3.125 | – | –
C[C@H]1COc2c(N3CCN(C)CC3)c(F)cc3c(=O)c(C(=O)O)cn1c23 [levofloxacin] | – | – | 0.2 | 5
CC[C@H](C)CCCCC(=O)N[C@@H](CCN)C(=O)N[C@H](C(=O)N[C@@H](CCN)C(=O)N[C@H]1CCNC(=O)[C@H]([C@@H](C)O)NC(=O)[C@H](CCN)NC(=O)[C@H](CCN)NC(=O)[C@H](CC(C)C)NC(=O)[C@@H](Cc2ccccc2)NC(=O)[C@H](CCN)NC1=O)[C@@H](C)O [polymyxin B] (X1-[Dab]T[Dab][Dab][Dab][dF]L[Dab][Dab]T; lactam 4-C (inferred); N-terminus assumed) | 65 | 2000 | – | –
CN(C)[C@@H]1C(O)=C(C(N)=O)C(=O)[C@@]2(O)C(O)=C3C(=O)c4c(O)cccc4[C@@](C)(O)[C@H]3C[C@@H]12 [tetracycline] | – | – | – | 15.6
